Reference: EP2209789B1, “C[…] INDOLOB[…] NS5B INHIBITORS” (Bristol-Myers Squibb Company, priority 2007, dated 2009)

How the values were obtained:
HCV replicon = HCV replicon FRET / luciferase assay; type: cell-based
Protocol: FRET Assay Preparation. The HCV FRET screening assay was performed in 96-well cell culture plates. The FRET peptide (Anaspec, Inc.) (Taliani et al., Anal. Biochem. 1996, 240, 60-67) contains a fluorescence donor, EDANS, near one end of the peptide and an acceptor, DABCYL, near the other end. The fluorescence of the peptide is quenched by […] resonance energy transfer (RET) between the donor and the acceptor, but as the NS3 protease cleaves the peptide the products are released from RET quenching and the fluorescence of the donor becomes apparent. The assay reagent was made as follows: 5X cell Luciferase cell culture lysis reagent from Promega (#E153A) diluted to 1X with dH2O, NaCl added to 150 mM final, the FRET peptide diluted to 20 µM final from a 2 mM stock.
To prepare plates, HCV replicon cells, with or without a Renilla luciferase reporter gene, were trypsinized and plated in a 96-well plate with titrated test compounds added in columns 3 through 12; columns 1 and 2 contained a control compound (HCV control inhibitor), and the bottom row contained cells with DMSO only. The plates were then placed in a CO2 incubator at 37 °C.
Assays. Subsequent to addition of the test compounds described above (FRET Assay Preparation), at various times the plate was removed and Alamar blue solution (Trek Diagnostics, #00-100) was added to measure cellular toxicity. After reading in a Cytoflour 4000 instrument (PE Biosystems), plates were rinsed with PBS and then used for FRET assay by the addition of 30 ul of the FRET peptide assay reagent described above (FRET Assay Preparation) per well. The plate was then placed into the Cytoflour 4000 instrument which had been set to 340 excite/490 emission, automatic mode for up to 20 cycles and the plate read in a kinetic mode. Typically, the signal to noise using an endpoint analysis after the reads was at least three-fold. Alternatively, after Alamar blue reading, plates were rinsed with PBS, then used for luciferase assay using the Promega Dual-Glo Luciferase Assay System or the Promega EnduRen Live Cell Substrate assay.
Compound analysis was performed by quantification of the relative HCV replicon inhibition and the relative cytotoxicity values. To calculate cytoxicity values, the average Alamar Blue fluorescence signals from the control wells were set as 100% non-toxic. The individual signals in each of the compound test wells were then divided by the average control signal and multiplied by 100% to determine […]. To calculate the HCV replicon inhibition values, an average background value was obtained from the two wells containing the highest amount of HCV control inhibitor at the end of the assay period. These numbers were similar to those obtained from naïve Huh-7 cells. The background numbers were then subtracted from the average signal obtained from the control wells and this number was used as 100% activity. The individual signals in each of the compound test wells were then divided by the averaged control values after background subtraction and multiplied by 100% to determine percent activity. […] The two numbers generated for the compound plate, percent cytoxicity and percent activity, were used to determine compounds of interest for further analysis.

HCV NS5B = molecular target: T1, HCV NS5B (Hepatitis C virus genotype 1b, UniProt Q9WMX2); experiment: HCV NS5B RdRp enzyme assay (standard or modified); type: biochemical; details: HCV RdRp genotype 1b enzyme; not stated whether standard or modified assay
T1 construct: The cDNA encoding the NS5B protein of HCV, genotype 1b; made in house; host or cells: E. coli BL21(DE3)
T1 sequence (Q9WMX2 2420-2992): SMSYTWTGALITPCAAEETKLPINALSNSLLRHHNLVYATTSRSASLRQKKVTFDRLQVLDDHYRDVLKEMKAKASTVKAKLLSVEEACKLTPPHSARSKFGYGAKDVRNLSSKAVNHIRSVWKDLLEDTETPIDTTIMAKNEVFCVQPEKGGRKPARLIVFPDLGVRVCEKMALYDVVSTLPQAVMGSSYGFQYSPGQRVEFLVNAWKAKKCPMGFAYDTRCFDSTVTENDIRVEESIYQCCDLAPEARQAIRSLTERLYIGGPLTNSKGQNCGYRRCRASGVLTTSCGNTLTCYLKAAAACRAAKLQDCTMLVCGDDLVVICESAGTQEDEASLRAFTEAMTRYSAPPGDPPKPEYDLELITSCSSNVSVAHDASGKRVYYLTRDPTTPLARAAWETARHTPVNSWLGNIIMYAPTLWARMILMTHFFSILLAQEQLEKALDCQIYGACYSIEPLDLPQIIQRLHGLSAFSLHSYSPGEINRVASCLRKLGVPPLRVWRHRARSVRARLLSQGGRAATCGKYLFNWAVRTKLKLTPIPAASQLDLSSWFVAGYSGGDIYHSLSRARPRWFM
Protocol: HCV NS5B RdRp cloning, expression, and purification. The cDNA encoding the NS5B protein of HCV, genotype 1b, was cloned into the pET21a expression vector. The protein was expressed with an 18 amino acid C-terminal truncation to enhance the solubility. The E. coli competent cell line BL21(DE3) was used for expression of the protein. Cultures were grown at 37 °C for ~ 4 hours until the cultures reached an optical density of 2.0 at 600 nm. The cultures were cooled to 20 °C and induced with 1 mM IPTG. Fresh ampicillin was added to a final concentration of 50 µg/ml and the cells were grown overnight at 20 °C.
The lysis buffer consisted of 20 mM Tris-HCl, pH 7.4, 500 mM NaCl, 0.5% triton X-100, 1 mM DTT, 1 mM EDTA, 20% glycerol, 0.5 mg/ml lysozyme, 10 mM MgCl2, 15 ug/ml deoxyribonuclease I, and Complete TM protease inhibitor tablets (Roche). After addition of the lysis buffer, frozen cell pellets were resuspended using a tissue homogenizer. To reduce the viscosity of the sample, aliquots of the lysate were sonicated on ice using a microtip attached to a Branson sonicator. The sonicated lysate was centrifuged at 100,000 x g for Ihr at 4 °C and filtered through a 0.2 µm filter unit (Coming).
The protein was purified using two sequential chromatography steps: Heparin sepharose CL-6B and polyU sepharose 4B (Pharmacia). The chromatography buffers were identical to the lysis buffer but contained no lysozyme, deoxyribonuclease I, MgCl2 or protease inhibitor and the NaCl concentration of the buffer was adjusted according to the requirements for charging the protein onto the column. Each column was eluted with a NaCl gradient which varied in length from 5-50 column volumes depending on the column type. […] The enzyme was aliquoted and stored at -80 °C.
Standard HCV NSSB RdRp enzyme assay. HCV RdRp genotype 1b assays were run in a final volume of 60 µl in 96 well plates (Coming 3600). The assay buffer is composed of 20 mM Hepes, pH 7.5, 2.5 mM KCl, 2.5 mM MgCl2, 1 mM DTT, 1.6 U RNAse inhibitor (Promega N2515), 0.01 mg/ml BSA (Sigma B6917), and 2 % glycerol. All compounds were serially diluted (3-fold) in DMSO and diluted further in water such that the final concentration of DMSO in the assay was 2%. HCV RdRp genotype 1b enzyme was used at a final concentration of 28 nM. A polyA template was used at 6 nM, and a biotinylated oligo-dT12 primer was used at 180 nM final concentration. Template was obtained commercially (Amersham 27-4110). Biotinylated primer was prepared by Sigma Genosys. 3H-UTP was used at 0.6 µCi (0.29 µM total UTP). Reactions were initiated by the addition of enzyme, incubated at 30 °C for 60 min, and stopped by adding 25 µl of 50 mM EDTA containing SPA beads (4 µg/µl, Amersham RPNQ 0007). Plates were read on a Packard Top Count NXT after >1hr incubation at room temperature.
Modified HCV NS5B RdRp enzyme assay. A modified enzyme assay was performed essentially as described for the standard enzyme assay except for the following: The biotinylated oligo dT12 primer was precaptured on streptavidin-coated SPA beads by mixing primer and beads in assay buffer and incubating at room temperature for one hour. Unbound primer was removed after centrifugation. The primer-bound beads were resuspended in 20 mM Hepes buffer, pH 7.5 and used in the assay at final concentrations of 20 nM primer and 0.67 µg/µl beads. Order of addition in the assay: enzyme (1.75 nM) was added to diluted compound followed by the addition of a mixture of template (0.36 nM), 3H-UTP (0.6 µCi, 0.29 µM), and primer-bound beads, to initiate the reaction; concentrations given are final. Reactions were allowed to proceed for 4 hours at 30° C.
IC50 values for compounds were determined using seven different [I].

[1] = HCV replicon cells, 50% reduction in FRET or luciferase activity

Structure (SMILES)	EC50 (HCV replicon; Hepatitis C virus) [nM]	IC50 (HCV NS5B) [nM]	EC50 (HCV replicon; [1]) [nM]
CCN(CC)C(=O)N1CC2CCC(C1)N2C(=O)C12CC1c1cc(OC)ccc1-c1c(C3CCCCC3)c3ccc(C(=O)NS(=O)(=O)C4CC4)cc3n1C2 (stereo not shown)	1 to 500	–	–
CCN(CC)C(=O)N1CC2CCC(C1)N2C(=O)C12CC1c1cc(OC)ccc1-c1c(C3CCCCC3)c3ccc(C(=O)NS(=O)(=O)N4CCN(C)CC4)cc3n1C2 (stereo not shown)	1 to 500	–	–
COc1ccc2c(c1)[C@H]1C[C@@]1(C(=O)N1C3CCC1CN(C)C3)Cn1c-2c(C2CCCCC2)c2ccc(C(=O)NS(=O)(=O)C(C)C)cc21	1 to 500	–	–
COc1ccc2c(c1)C1CC1(C(=O)N1C3CCC1CN(C)C3)Cn1c-2c(C2CCCCC2)c2ccc(C(=O)NS(=O)(=O)C(C)C)cc21 (stereo not shown)	1 to 500	–	–
COc1ccc2c(c1)C1CC1(C(=O)N1C3CCC1CN(C)C3)Cn1c-2c(C2CCCCC2)c2ccc(C(=O)NS(=O)(=O)C3CCCC3)cc21 (stereo not shown)	1 to 500	1 to 500	–
COc1ccc2c(c1)C1CC1(C(=O)N1C3CCC1CN(C)C3)Cn1c-2c(C2CCCCC2)c2ccc(C(=O)NS(=O)(=O)C3CCCCC3)cc21 (stereo not shown)	1 to 500	–	–
COc1ccc2c(c1)C1CC1(C(=O)N1C3CCC1CN(C)C3)Cn1c-2c(C2CCCCC2)c2ccc(C(=O)NS(=O)(=O)CC(C)C)cc21 (stereo not shown)	1 to 500	1 to 500	–
CCCS(=O)(=O)NC(=O)c1ccc2c(C3CCCCC3)c3n(c2c1)CC1(C(=O)N2C4CCC2CN(C)C4)CC1c1cc(OC)ccc1-3 (stereo not shown)	1 to 500	1 to 500	–
COc1ccc2c(c1)C1CC1(C(=O)N1C3CCC1CN(C)C3)Cn1c-2c(C2CCCCC2)c2ccc(C(=O)NS(=O)(=O)C(C)(C)C)cc21 (stereo not shown)	1 to 500	1 to 500	–
CCCCS(=O)(=O)NC(=O)c1ccc2c(C3CCCCC3)c3n(c2c1)CC1(C(=O)N2C4CCC2CN(C)C4)CC1c1cc(OC)ccc1-3 (stereo not shown)	1 to 500	–	–
CN1CC2CCC(C1)N2C(=O)C12CC1c1ccccc1-c1c(C3CCCCC3)c3ccc(C(=O)NS(=O)(=O)N(C)C)cc3n1C2 (stereo not shown)	1 to 500	1 to 500	–
CC(C)S(=O)(=O)NC(=O)c1ccc2c(C3CCCCC3)c3n(c2c1)CC1(C(=O)N2C4CCC2CN(C)C4)CC1c1ccccc1-3 (stereo not shown)	1 to 500	1 to 500	–
CCC(CC)S(=O)(=O)NC(=O)c1ccc2c(C3CCCCC3)c3n(c2c1)CC1(C(=O)N2C4CCC2CN(C)C4)CC1c1cc(OC)ccc1-3 (stereo not shown)	> 110	–	–
COc1ccc2c(c1)[C@@H]1C[C@]1(C(=O)N1C3CCC1CN(C)C3)Cn1c-2c(C2CCCCC2)c2ccc(C(=O)NS(=O)(=O)CC(C)C)cc21	1 to 500	1 to 500	–
COc1ccc2c(c1)C1CC1(C(=O)N1C3CCC1CN(C)C3)Cn1c-2c(C2CCCCC2)c2ccc(C(=O)NS(=O)(=O)CC(F)F)cc21 (stereo not shown)	1 to 500	–	–
COc1ccc2c(c1)C1CC1(C(=O)N1C3CCC1CN(C)C3)Cn1c-2c(C2CCCCC2)c2ccc(C(=O)NS(=O)(=O)C(F)(F)F)cc21 (stereo not shown)	1 to 500	–	–
COc1ccc2c(c1)C1CC1(C(=O)N1C3CCC1CN(C)C3)Cn1c-2c(C2CCCCC2)c2ccc(C(=O)NS(=O)(=O)CCC(F)(F)F)cc21 (stereo not shown)	1 to 500	1 to 500	–
COc1ccc2c(c1)C1CC1(C(=O)N1C3CCC1CN(C)C3)Cn1c-2c(C2CCCCC2)c2ccc(C(=O)NS(=O)(=O)CC(F)(F)F)cc21 (stereo not shown)	1 to 500	1 to 500	–
COc1ccc2c(c1)C1CC1(C(=O)N1C3CCC1CN(C)C3)Cn1c-2c(C2CCCCC2)c2ccc(C(=O)NS(=O)(=O)C3CCC3)cc21 (stereo not shown) [drawing 40]	–	1 to 500	1 to 500
CCC(C)S(=O)(=O)NC(=O)c1ccc2c(C3CCCCC3)c3n(c2c1)CC1(C(=O)N2C4CCC2CN(C)C4)CC1c1cc(OC)ccc1-3 (stereo not shown) [drawing 45]	1 to 500	1 to 500	–
COc1ccc2c(c1)C1CC1(C(=O)N1C3CCC1CN(C)C3)Cn1c-2c(C2CCCCC2)c2ccc(C(=O)NS(=O)(=O)C3CCC3)cc21 (stereo not shown) [drawing 51]	1 to 500	–	–
CCC(C)S(=O)(=O)NC(=O)c1ccc2c(C3CCCCC3)c3n(c2c1)CC1(C(=O)N2C4CCC2CN(C)C4)CC1c1cc(OC)ccc1-3 (stereo not shown) [drawing 52]	–	1 to 500	1 to 500
